Laboratory results as given in ChEMBL document CHEMBL1201862, “PubChem BioAssay data set” (2004).
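The compound was tested at five concentrations on cells cultured in 96-well plates, with a 48-hour exposure period. GI50 = concentration required for 50% inhibition of growth.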 Calls of active or inactive are those of the source. No stated cut-off is given here; in the data, active = GI50 up to about 1.1 µM and inactive = higher.

What was measured:
Experiment in all cases: DTP human tumour cell line panel, 48 h
[1] = tested on: SK-MEL-28
[2] = tested on: NCI-H226
[3] = tested on: HCT-116
[4] = tested on: SW-620
[5] = tested on: SK-MEL-5
[6] = tested on: A498
[7] = tested on: SN12C
[8] = tested on: IGROV-1
[9] = tested on: A549
[10] = tested on: NCI-H23
[11] = tested on: SNB-19
[12] = tested on: MDA-MB-231
[13] = tested on: NCI-H460
[14] = tested on: SK-MEL-2
[15] = tested on: U-251
[16] = tested on: UACC-62
[17] = tested on: Hs-578T
[18] = tested on: NCI/ADR-RES
[19] = tested on: DU-145
[20] = tested on: HL-60
[21] = tested on: Malme-3M
[22] = tested on: CAKI-1
[23] = tested on: BT-549
[24] = tested on: SR
[25] = tested on: RPMI-8226
[26] = tested on: 786-0
[27] = tested on: T47D
[28] = tested on: OVCAR-3
[29] = tested on: UACC-257
[30] = tested on: M14
[31] = tested on: OVCAR-5
[32] = tested on: SNB-75
[33] = tested on: MOLT-4
[34] = tested on: CCRF-CEM
[35] = tested on: EKVX
[36] = tested on: HCT-15
[37] = tested on: K562
[38] = tested on: NCI-H522
[39] = tested on: MCF7
[40] = tested on: UO-31
[41] = tested on: HT-29
[42] = tested on: COLO 205
[43] = tested on: TK-10
[44] = tested on: SK-OV-3
[45] = tested on: OVCAR-8
[46] = tested on: KM12
[47] = tested on: SF-268
[48] = tested on: SF-539
[49] = tested on: MDA-MB-435
[50] = tested on: PC-3
[51] = tested on: OVCAR-4
[52] = tested on: HCC 2998
[53] = tested on: LOX IMVI
[54] = tested on: RXF 393

Measured: GI50

CSC1=C(C(=O)Nc2ccc(Cl)cc2)C(N)=NC1=O
> 100 µM: [36]
inactive: [1] > 100 µM | [2] > 100 µM | [3] > 100 µM | [4] > 100 µM | [5] > 100 µM | [6] > 100 µM | [7] > 100 µM | [8] 19.7 µM | [9] > 100 µM | [10] > 100 µM | [11] > 100 µM | [12] > 100 µM | [13] > 100 µM | [14] > 100 µM | [15] > 100 µM | [16] > 100 µM | [17] > 100 µM | [18] > 100 µM | [19] > 100 µM | [20] > 100 µM | [21] > 100 µM | [22] 29 µM | [23] > 100 µM | [24] 37.8 µM | [25] > 100 µM | [26] > 100 µM | [27] > 100 µM | [28] > 100 µM | [29] > 100 µM | [30] > 100 µM | [31] > 100 µM | [32] > 100 µM | [33] > 100 µM | [34] > 100 µM | [35] > 100 µM | [37] > 100 µM | [38] > 100 µM | [39] > 100 µM | [40] 45.1 µM | [41] > 100 µM | [42] > 100 µM | [43] > 100 µM | [44] > 100 µM | [45] > 100 µM | [46] > 100 µM | [47] > 100 µM | [48] > 100 µM | [49] > 100 µM | [50] > 100 µM | [51] > 100 µM | [52] > 100 µM | [53] > 100 µM | [54] > 100 µM
